The values that follow come from ChEMBL document CHEMBL1151052, “Semi-synthetic qualestatins: Squalene synthase inhibition and antifungal activity. The SAR of C6 and C7 modifications” (Bioorg Med Chem Lett, 1993).

Each structure is given as a SMILES string. In brackets after ≈: the same amount, converted by molar mass. A value given as a limit tells only on which side of the number the result lay.

In one assay the test system is Cryptococcus neoformans. The experiment in a line: Antifungal activity against Cryptococcus neoformans 2867E strain. The class given is functional.
A further assay concerns Candida albicans. In words: Antifungal activity against Candida albicans C316 strain. The class given is functional.
For a further assay, the system named is Aspergillus niger. In words: Tested for the whole cell antifungal activity against Aspergillus niger 48238 strain. The class given is functional.
A further assay deals with T1, Squalene synthase (Rattus norvegicus, UniProt Q02769).
T1 sequence (Q02769 whole entry): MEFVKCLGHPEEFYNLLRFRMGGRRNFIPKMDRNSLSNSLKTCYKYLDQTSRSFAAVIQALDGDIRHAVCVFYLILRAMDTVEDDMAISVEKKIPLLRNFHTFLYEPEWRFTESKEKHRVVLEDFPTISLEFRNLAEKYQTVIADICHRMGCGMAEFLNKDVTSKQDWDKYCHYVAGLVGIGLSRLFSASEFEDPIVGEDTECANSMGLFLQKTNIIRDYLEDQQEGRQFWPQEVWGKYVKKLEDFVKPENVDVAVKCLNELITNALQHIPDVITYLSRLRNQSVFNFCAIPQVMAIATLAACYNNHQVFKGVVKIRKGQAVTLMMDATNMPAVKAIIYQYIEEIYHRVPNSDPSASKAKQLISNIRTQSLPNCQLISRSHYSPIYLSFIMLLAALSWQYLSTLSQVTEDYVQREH
In words: Inhibition of rat liver squalene synthase(SQS).

`C=C(CC[C@]12O[C@H](C(=O)O)[C@@](O)(C(=O)O)[C@](C(=O)O)(O1)[C@H](OC(=O)/C=C/[C@@H](C)C[C@@H](C)CC)[C@H]2OC(=O)CCCCCCC)[C@@H](OC(C)=O)[C@H](C)Cc1ccccc1`: the MIC against Cryptococcus neoformans, against Candida albicans and against Aspergillus niger was more than 32 µg/mL each time.
For the compound `C=C(CC[C@]12O[C@H](C(=O)O)[C@@](O)(C(=O)O)[C@](C(=O)O)(O1)[C@H](OC(=O)/C=C/[C@@H](C)C[C@@H](C)CC)[C@H]2OC(C)=O)[C@@H](OC(C)=O)[C@H](C)Cc1ccccc1`, the minimal inhibitory concentration (MIC) (usually the lowest concentration found to suppress growth) with Cryptococcus neoformans was 1 µg/mL (≈ 1.36 µM); in the assay on Candida albicans, more than 125 µg/mL; with Aspergillus niger, 8 µg/mL (≈ 10.9 µM). Besides, on Squalene synthase, the IC50 (as a rule, the midpoint of a concentration-inhibition curve) worked out at 10 nM.
For the compound `C=C(CC[C@]12O[C@H](C(=O)O)[C@@](O)(C(=O)O)[C@](C(=O)O)(O1)[C@H](OC(=O)CC1CCCCC1)[C@H]2O)[C@@H](OC(C)=O)[C@H](C)Cc1ccccc1`, the MIC against Cryptococcus neoformans was 2 µg/mL (≈ 3.02 µM); in the assay with Candida albicans, 62 µg/mL (≈ 93.6 µM); against Aspergillus niger it was 62 µg/mL (≈ 93.6 µM).
On to `C=C(CC[C@]12O[C@H](C(=O)O)[C@@](O)(C(=O)O)[C@](C(=O)O)(O1)[C@H](OC(=O)OCCCCCCCCC)[C@H]2O)[C@@H](OC(C)=O)[C@H](C)Cc1ccccc1`, for which the MIC in the assay on Cryptococcus neoformans was determined as 0.06 µg/mL (≈ 0.0847 µM); against Candida albicans, 1 µg/mL (≈ 1.41 µM); with Aspergillus niger, 0.25 µg/mL (≈ 0.353 µM). On Squalene synthase, this compound gave an IC50 of 7 nM.
The like results for `C=C(CC[C@]12O[C@H](C(=O)O)[C@@](O)(C(=O)O)[C@](C(=O)O)(O1)[C@H](OC(=O)CCCCCCCCC)[C@H]2O)[C@@H](OC(C)=O)[C@H](C)Cc1ccccc1` were, in that order, 2 µg/mL (≈ 2.89 µM), 16 µg/mL (≈ 23.1 µM), 2 µg/mL (≈ 2.89 µM) and 8 nM.
As for `C=C(CC[C@]12O[C@H](C(=O)O)[C@@](O)(C(=O)O)[C@](C(=O)O)(O1)[C@H](OC(=O)OC)[C@H]2O)[C@@H](OC(C)=O)[C@H](C)Cc1ccccc1`, the minimal inhibitory concentration (MIC) with Cryptococcus neoformans, in the assay on Candida albicans and with Aspergillus niger was more than 125 µg/mL each time. The compound also showed an IC50 against Squalene synthase of 3 nM.
With `C=C(CC[C@]12O[C@H](C(=O)O)[C@@](O)(C(=O)O)[C@](C(=O)O)(O1)[C@H](O)[C@H]2O)[C@@H](OC(C)=O)[C@H](C)Cc1ccccc1`, the minimal inhibitory concentration (MIC) against Cryptococcus neoformans, against Candida albicans and with Aspergillus niger was more than 125 µg/mL in each case.
As for `C=C(CC[C@]12O[C@H](C(=O)O)[C@@](O)(C(=O)O)[C@](C(=O)O)(O1)[C@H](OC(=O)CCCCCCC)[C@H]2O)[C@@H](OC(C)=O)[C@H](C)Cc1ccccc1`, the MIC against Cryptococcus neoformans is 1 µg/mL (≈ 1.5 µM); in the assay on Candida albicans it was 31 µg/mL (≈ 46.6 µM); with Aspergillus niger it was 8 µg/mL (≈ 12 µM). The half-inhibitory concentration (IC50) on Squalene synthase is 3 nM.
Regarding `C=C(CC[C@]12O[C@H](C(=O)O)[C@@](O)(C(=O)O)[C@](C(=O)O)(O1)[C@H](OC(=O)CCCC)[C@H]2O)[C@@H](OC(C)=O)[C@H](C)Cc1ccccc1`, the MIC in the assay with Cryptococcus neoformans, with Candida albicans and against Aspergillus niger was more than 125 µg/mL in each case.
For the compound `C=C(CC[C@]12O[C@H](C(=O)O)[C@@](O)(C(=O)O)[C@](C(=O)O)(O1)[C@H](OC(=O)CCCCCCc1ccccc1)[C@H]2O)[C@@H](OC(C)=O)[C@H](C)Cc1ccccc1`, the MIC in the assay with Cryptococcus neoformans was found to be 2 µg/mL (≈ 2.75 µM); against Candida albicans, 125 µg/mL (≈ 172 µM); in the assay on Aspergillus niger, 62 µg/mL (≈ 85.3 µM). On Squalene synthase, the IC50 stood at 9 nM.
With `C=C(CC[C@]12O[C@H](C(=O)O)[C@@](O)(C(=O)O)[C@](C(=O)O)(O1)[C@H](OC(=O)C1CCCCC1)[C@H]2O)[C@@H](OC(C)=O)[C@H](C)Cc1ccccc1`, the values for the MIC against Cryptococcus neoformans, against Candida albicans and against Aspergillus niger were 31 µg/mL (≈ 47.8 µM), more than 62 µg/mL and more than 62 µg/mL, respectively. Moreover, the IC50 against Squalene synthase came out at 17 nM.
Consider `C=C(CC[C@]12O[C@H](C(=O)O)[C@@](O)(C(=O)O)[C@](C(=O)O)(O1)[C@H](OC(=O)OCCCC)[C@H]2O)[C@@H](OC(C)=O)[C@H](C)Cc1ccccc1`, for which the minimal inhibitory concentration (MIC) in the assay with Cryptococcus neoformans, with Candida albicans and in the assay on Aspergillus niger was more than 125 µg/mL each time. Half-maximal inhibition on Squalene synthase (IC50) was put at 4 nM.
For `C=C(CC[C@]12O[C@H](C(=O)O)[C@@](O)(C(=O)O)[C@](C(=O)O)(O1)[C@H](O)[C@H]2OC(=O)OC)[C@@H](OC(C)=O)[C@H](C)Cc1ccccc1`, the MIC against Cryptococcus neoformans, against Candida albicans and against Aspergillus niger was more than 125 µg/mL each time. Also, on Squalene synthase, 380 nM corresponded to half-maximal inhibition (IC50).
With `C=C(CC[C@]12O[C@H](C(=O)O)[C@@](O)(C(=O)O)[C@](C(=O)O)(O1)[C@H](OC(=O)CCCCCCC)[C@H]2OC(=O)CCCCCCC)[C@@H](OC(C)=O)[C@H](C)Cc1ccccc1`, the minimal inhibitory concentration (MIC) in the assay on Cryptococcus neoformans, against Candida albicans and in the assay on Aspergillus niger was more than 125 µg/mL each time. Besides, the 50% inhibitory concentration (IC50) on Squalene synthase was found to be 280 nM.
Regarding `C=C(CC[C@]12O[C@H](C(=O)O)[C@@](O)(C(=O)O)[C@](C(=O)O)(O1)[C@H](O)[C@H]2OC(C)=O)[C@@H](OC(C)=O)[C@H](C)Cc1ccccc1`, the MIC in the assay on Candida albicans and in the assay with Aspergillus niger was more than 125 µg/mL each time.
Regarding `C=C(CC[C@]12O[C@H](C(=O)O)[C@@](O)(C(=O)O)[C@](C(=O)O)(O1)[C@H](O)[C@H]2OC(=O)CCCCCCCCC)[C@@H](OC(C)=O)[C@H](C)Cc1ccccc1`, the MIC in the assay on Cryptococcus neoformans, against Candida albicans and in the assay on Aspergillus niger was more than 125 µg/mL throughout. The compound further gave an IC50 at Squalene synthase of 303 nM.
Turning to `C=C(CC[C@]12O[C@H](C(=O)O)[C@@](O)(C(=O)O)[C@](C(=O)O)(O1)[C@H](OC(C)=O)[C@H]2OC(C)=O)[C@@H](OC(C)=O)[C@H](C)Cc1ccccc1`, the MIC with Candida albicans and against Aspergillus niger was more than 125 µg/mL each time.
For the compound `C=C(CC[C@]12O[C@H](C(=O)O)[C@@](O)(C(=O)O)[C@](C(=O)O)(O1)[C@H](OC(=O)c1ccccc1)[C@H]2O)[C@@H](OC(C)=O)[C@H](C)Cc1ccccc1`, the minimum inhibitory concentration (MIC) in the assay on Cryptococcus neoformans, in the assay on Candida albicans and with Aspergillus niger was more than 125 µg/mL in each case. Besides, half-maximal inhibition against Squalene synthase (IC50) required 8 nM.
As to `C=C(CC[C@]12O[C@H](C(=O)O)[C@@](O)(C(=O)O)[C@](C(=O)O)(O1)[C@H](O)[C@H]2OC(=O)CCCCCCC)[C@@H](OC(C)=O)[C@H](C)Cc1ccccc1`, the MIC in the assay with Cryptococcus neoformans, in the assay with Candida albicans and against Aspergillus niger was more than 125 µg/mL in each case. Moreover, the IC50 against Squalene synthase was more than 500 nM.
For `C=C(CC[C@]12O[C@H](C(=O)O)[C@@](O)(C(=O)O)[C@](C(=O)O)(O1)[C@H](OC(=O)/C=C/c1ccccc1)[C@H]2O)[C@@H](OC(C)=O)[C@H](C)Cc1ccccc1`, the minimal inhibitory concentration (MIC) in the assay with Cryptococcus neoformans is 31 µg/mL (≈ 46.4 µM); in the assay with Candida albicans it was more than 125 µg/mL; with Aspergillus niger, more than 125 µg/mL. For the same compound, at Squalene synthase, the IC50 amounted to 4 nM.
`C=C(CC[C@]12O[C@H](C(=O)O)[C@@](O)(C(=O)O)[C@](C(=O)O)(O1)[C@H](OC(C)=O)[C@H]2O)[C@@H](OC(C)=O)[C@H](C)Cc1ccccc1`: the MIC against Cryptococcus neoformans, with Candida albicans and in the assay on Aspergillus niger was more than 125 µg/mL in each case. On Squalene synthase, this compound showed an IC50 of 2 nM.
Consider `C=C(CC[C@]12O[C@H](C(=O)O)[C@@](O)(C(=O)O)[C@](C(=O)O)(O1)[C@H](OC(=O)/C=C/[C@@H](C)C[C@@H](C)CC)[C@H]2OC(=O)OC)[C@@H](OC(C)=O)[C@H](C)Cc1ccccc1`, for which the MIC against Cryptococcus neoformans was more than 125 µg/mL; in the assay with Candida albicans, 125 µg/mL (≈ 167 µM); in the assay on Aspergillus niger, more than 125 µg/mL. The concentration for half-maximal inhibition (IC50) on Squalene synthase was 15 nM.
As to `C=C(CC[C@]12O[C@H](C(=O)O)[C@@](O)(C(=O)O)[C@](C(=O)O)(O1)[C@H](OC(=O)CCC)[C@H]2OC(=O)CCC)[C@@H](OC(C)=O)[C@H](C)Cc1ccccc1`, the MIC in the assay on Cryptococcus neoformans, in the assay with Candida albicans and against Aspergillus niger was more than 125 µg/mL in each case.
On to `C=C(CC[C@]12O[C@H](C(=O)O)[C@@](O)(C(=O)O)[C@](C(=O)O)(O1)[C@H](OC(=O)/C=C/[C@@H](C)C[C@@H](C)CC)[C@H]2O)[C@@H](OC(C)=O)[C@H](C)Cc1ccccc1` [ZARAGOZIC ACIDS A], for which the results for the MIC against Cryptococcus neoformans, against Candida albicans and in the assay on Aspergillus niger were 0.5 µg/mL (≈ 0.724 µM), 8 µg/mL (≈ 11.6 µM) and 16 µg/mL (≈ 23.2 µM), respectively.
